ChEMBL document CHEMBL4052721, “Gerontoxanthone B from Maclura cochinchinensis var. gerontogea exhibits anti-inflammatory potential as an aryl hydrocarbon receptor agonist” (Bioorg Med Chem, 2017)

Key:
Assay type in all cases: cell-based; call rule not given here
[1] = target: T1, Aryl hydrocarbon receptor (Homo sapiens, UniProt P35869); test: Agonist activity at AhR in human HepG2 cells at 10 uM after 42 hrs by luciferase reporter gene assay relative to control; conditions: read-out: FC
T1 sequence (P35869 whole entry): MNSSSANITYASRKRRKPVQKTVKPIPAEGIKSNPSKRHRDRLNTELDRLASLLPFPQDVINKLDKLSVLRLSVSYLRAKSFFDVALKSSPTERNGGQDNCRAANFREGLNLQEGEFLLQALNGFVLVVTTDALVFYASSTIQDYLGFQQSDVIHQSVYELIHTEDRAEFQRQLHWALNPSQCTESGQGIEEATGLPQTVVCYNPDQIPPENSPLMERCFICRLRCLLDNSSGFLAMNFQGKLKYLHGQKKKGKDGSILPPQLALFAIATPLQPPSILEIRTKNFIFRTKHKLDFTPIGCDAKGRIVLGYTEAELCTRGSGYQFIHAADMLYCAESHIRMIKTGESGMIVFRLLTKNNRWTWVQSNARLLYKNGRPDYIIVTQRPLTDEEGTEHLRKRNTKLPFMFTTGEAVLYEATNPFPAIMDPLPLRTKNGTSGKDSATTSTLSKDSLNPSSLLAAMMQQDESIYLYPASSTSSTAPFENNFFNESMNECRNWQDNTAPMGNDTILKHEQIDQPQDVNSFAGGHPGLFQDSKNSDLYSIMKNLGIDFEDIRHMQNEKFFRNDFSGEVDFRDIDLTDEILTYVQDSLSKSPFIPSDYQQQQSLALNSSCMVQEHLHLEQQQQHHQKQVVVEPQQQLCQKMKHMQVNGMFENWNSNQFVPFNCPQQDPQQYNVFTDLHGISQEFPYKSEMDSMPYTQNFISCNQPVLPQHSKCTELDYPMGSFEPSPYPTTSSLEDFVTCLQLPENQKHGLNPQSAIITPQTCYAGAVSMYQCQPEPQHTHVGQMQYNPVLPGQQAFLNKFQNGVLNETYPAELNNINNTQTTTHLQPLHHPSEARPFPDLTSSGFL

[2] = target: T1, Aryl hydrocarbon receptor; test: Agonist activity at AhR in human HepG2 cells at 1 to 10 uM after 42 hrs by luciferase reporter gene assay relative to control
[3] = target: T1, Aryl hydrocarbon receptor; test: Agonist activity at AhR in human HepG2 cells at 5 to 20 nM after 42 hrs in presence of AhR antagonist GNF-351 by luciferase reporter gene assay
[4] = target: T1, Aryl hydrocarbon receptor; test: Agonist activity at AhR in human HepG2 cells at 5 to 20 nM after 42 hrs in presence of AhR antagonist 3',4'-DMF by luciferase reporter gene assay
[5] = target: T1, Aryl hydrocarbon receptor; test: Agonist activity at AhR in human HuH7 cells assessed as reduction in IL-1beta induced increase in SAA1 mRNA level at 10 nM pretreated for 20 hrs followed by Il-1beta addition measured after 4 hrs by qRT-PCR analysis; conditions: 0.01 µM
HepG2 [6] = test: Cytotoxicity against human HepG2 cells at 1 uM; conditions: hepg2, 1 µM
[7] = target: T1, Aryl hydrocarbon receptor; test: Agonist activity at AhR in human HepG2 cells after 42 hrs by luciferase reporter gene assay
[8] = target: T1, Aryl hydrocarbon receptor; test: Agonist activity at AhR in human HepG2 cells at 2.5 to 10 uM after 42 hrs in presence of AhR antagonist GNF-351 by luciferase reporter gene assay
[9] = target: T1, Aryl hydrocarbon receptor; test: Agonist activity at AhR in human HepG2 cells at 2.5 to 10 uM after 42 hrs in presence of AhR antagonist 3',4'-DMF by luciferase reporter gene assay
[10] = target: T1, Aryl hydrocarbon receptor; test: Agonist activity at AhR in human HepG2 cells at 2.5 to 10 uM after 42 hrs in presence of AhR antagonist CH-223191 by luciferase reporter gene assay
HepG2 [11] = test: Cytotoxicity against human HepG2 cells at 20 uM; conditions: hepg2, 20 µM
[12] = target: T1, Aryl hydrocarbon receptor; test: Agonist activity at AhR in human HuH7 cells assessed as reduction in IL-1beta induced increase in SAA1 mRNA level at 10 uM pretreated for 20 hrs followed by Il-1beta addition measured after 4 hrs by qRT-PCR analysis

With CC(C)=CCc1c(O)ccc2oc3c4c(cc(O)c3c(=O)c12)OC(C)(C)C=C4 the fold induction at 10 µM [1] was ≥ 2.
For C=CC(C)(C)c1c(O)cc2oc3c(O)c(OCC=C(C)C)ccc3c(=O)c2c1O, the “fold change (FC)” value [2] was “>= 2”.
In the case of Clc1cc2c(cc1Cl)Oc1cc(Cl)c(Cl)cc1O2 [2,3,7,8-TETRACHLORODIBENZO-P-DIOXIN], the Activity [3] is reported as “Not Active”, the Activity [4] is reported as “Not Active” and the Activity [5] is reported as “Active”.
For CC1Oc2cc3oc4c(O)c5c(cc4c(=O)c3c(O)c2C1(C)C)C=CC(C)(C)O5 (stereo unspecified) [GERONTOXANTHONE A], the Activity (HepG2 [6]) was “Toxic” and the “fold change (FC)” value [2] was “>= 2”.
In the case of C=CC(C)(C)c1c(O)cc2oc3c(O)c4c(cc3c(=O)c2c1O)C=CC(C)(C)O4 [GERONTOXANTHONE B], the Activity [7] is reported as “Dose-dependent effect”, the Activity [8] is reported as “Not Active” and the Activity [9] is reported as “Not Active”. The Activity [10] was “Active”, the Activity (HepG2 [11]) was “Toxic” and the Activity [12] was “Active”. The “fold change (FC)” value [2] was “>= 2”.
CC(C)=CCc1c(O)cc(O)c2c(=O)c3c(CC=C(C)C)c(O)ccc3oc12 [GERONTOXANTHONE H] was tested, and the “fold change (FC)” value [2] was “>= 2”.
For C=CC(C)(C)c1c(O)c(CC=C(C)C)c(O)c2c(=O)c3ccc(O)c(O)c3oc12 [GERONTOXANTHONE I], the fold induction at 10 µM [1] was ≥ 2.
